From ChEMBL document CHEMBL1154985, “Discovery of a novel series of potent S1P1 agonists” (Bioorg Med Chem Lett, 2010)
≈ marks a conversion by molar mass, not a printed value. Calls of active or inactive are those of the source. The calls are words filed in the database; no cut-off is given here.

Legend:
[1] = Intrinsic clearance in rat liver microsomes at 3 uM by LC/MS-MS analysis; format: ADME, Microsome
[2] = Intrinsic clearance in human liver microsomes at 3 uM by LC/MS-MS analysis; format: ADME, Microsome
[3] = Apparent permeability across human Caco-2 cells by LC/MS-MS analysis; format: ADME, cell-based
[4] = molecular target: Sphingosine 1-phosphate receptor 3 (Homo sapiens, UniProt Q99500); test: Agonist activity at S1P3 receptor expressed in CHO cells after 60 mins by [35S]-GTPgammaS binding assay; format: functional, cell-based
[5] = Lipophilicity, log P of the compound; format: physicochemical; conditions: octanol/water
[6] = Solubility in PBS by nephelometry; format: physicochemical
[7] = molecular target: T1, Sphingosine 1-phosphate receptor 1 (Homo sapiens, UniProt P21453); test: Agonist activity at S1P1 receptor expressed in CHO cells after 60 mins by [35S]-GTPgammaS binding assay; format: functional, cell-based
[8] = molecular target: Sphingosine 1-phosphate receptor 5 (Homo sapiens, UniProt Q9H228); test: Agonist activity at S1P5 receptor expressed in CHO cells after 60 mins by [35S]-GTPgammaS binding assay; format: functional, cell-based
[9] = Lipophilicity, log D at pH 7.4; format: physicochemical; conditions: buffer
[10] = molecular target: T1, Sphingosine 1-phosphate receptor 1; test: Agonist activity at S1P1 receptor expressed in human U20S cells assessed as receptor internalization by green fluorescent protein reporter gene assay; format: functional, cell-based, U2OS
[11] = Clearance in mouse; format: ADME, organism-based; conditions: in vivo
Mus musculus [12] = test: Reduction of lymphopenia in mouse assessed as effect on erythrocytes at 30 mg/kg, po after 4 hrs; format: functional, organism-based; set-up: dose 30 mg/kg
Mus musculus [13] = test: Reduction of lymphopenia in mouse assessed as effect on platelets at 30 mg/kg, po after 4 hrs; format: functional, organism-based; set-up: dose 30 mg/kg
Mus musculus [14] = test: Reduction of S1P1-mediated lymphopenia in mouse assessed as blood lymphocyte depletion at 30 mg/kg, po after 4 hrs; format: functional; set-up: scale not given: the % may be the effect or the level left

T1 sequence (P21453 whole entry): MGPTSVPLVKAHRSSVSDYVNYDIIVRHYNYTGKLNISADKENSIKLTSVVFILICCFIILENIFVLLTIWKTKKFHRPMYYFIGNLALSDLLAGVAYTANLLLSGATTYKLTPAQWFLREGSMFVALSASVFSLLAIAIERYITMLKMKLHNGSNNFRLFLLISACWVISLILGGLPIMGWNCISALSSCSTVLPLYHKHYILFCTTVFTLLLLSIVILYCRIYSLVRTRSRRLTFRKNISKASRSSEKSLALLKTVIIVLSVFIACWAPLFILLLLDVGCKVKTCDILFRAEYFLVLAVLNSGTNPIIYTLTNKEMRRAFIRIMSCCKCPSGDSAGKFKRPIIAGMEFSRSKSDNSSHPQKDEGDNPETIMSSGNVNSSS
Chain of Sphingosine 1-phosphate receptor 5 (Q9H228 whole entry): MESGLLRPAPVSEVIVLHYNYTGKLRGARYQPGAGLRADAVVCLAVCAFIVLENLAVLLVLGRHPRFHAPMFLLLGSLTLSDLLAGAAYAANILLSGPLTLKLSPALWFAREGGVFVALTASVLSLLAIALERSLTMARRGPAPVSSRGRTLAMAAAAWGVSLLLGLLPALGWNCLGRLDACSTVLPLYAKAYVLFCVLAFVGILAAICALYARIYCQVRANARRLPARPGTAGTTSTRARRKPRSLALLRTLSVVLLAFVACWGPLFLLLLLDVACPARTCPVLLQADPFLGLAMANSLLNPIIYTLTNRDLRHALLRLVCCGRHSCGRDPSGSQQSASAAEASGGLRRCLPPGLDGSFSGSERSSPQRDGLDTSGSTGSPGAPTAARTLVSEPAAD
Chain of Sphingosine 1-phosphate receptor 3 (Q99500 whole entry): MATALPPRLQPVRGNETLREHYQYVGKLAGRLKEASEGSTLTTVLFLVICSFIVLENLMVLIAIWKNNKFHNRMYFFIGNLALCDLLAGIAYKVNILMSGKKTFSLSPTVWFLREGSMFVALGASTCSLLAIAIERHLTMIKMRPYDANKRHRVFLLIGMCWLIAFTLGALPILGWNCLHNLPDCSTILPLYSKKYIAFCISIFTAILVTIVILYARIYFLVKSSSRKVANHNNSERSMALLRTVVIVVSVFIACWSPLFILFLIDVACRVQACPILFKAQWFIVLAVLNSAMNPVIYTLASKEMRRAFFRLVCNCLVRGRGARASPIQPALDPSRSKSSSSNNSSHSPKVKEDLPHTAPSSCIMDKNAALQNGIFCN

Structure (SMILES)	microsomal CLint at 3 µM [1]	microsomal CLint at 3 µM [2]	Papp [3]	EC50 [4]	solubility kinetic [6]	EC50 [7]	EC50 [8]	other results
Cc1cc(S(N)(=O)=O)ccc1NC(=O)c1cc(NC2CCCCC2)ncn1	15 µL/min/mg	43 µL/min/mg	12.5 ×10⁻⁶ cm/s	> 30 µM	5 µg/mL (≈ 12.8 µM)			logP [5]: 3.6
CCN(c1cc(C(=O)Nc2ccc(O)cc2C)ncn1)C1CCCCC1						0.405 µM		
Cc1cc(S(=O)(=O)NCCC(=O)O)ccc1NC(=O)c1cc(N(CC2CC2)C2CCCCC2)ncn1	25 µL/min/mg	25 µL/min/mg	2 ×10⁻⁶ cm/s		> 51 µg/mL		0.114 µM	
COc1ccc(NC(=O)c2cc(NC3CCCCC3)ncn2)cc1						> 20 µM		
Cc1cc(CN2CC(C(=O)O)C2)ccc1NC(=O)c1cc(N(CC2CC2)C2CCCCC2)ncn1	< 10 µL/min/mg	< 10 µL/min/mg	2.4 ×10⁻⁶ cm/s	0.236 µM	22 µg/mL (≈ 46.1 µM)	0.003 µM	0.0006 µM	logD [9]: > 2.7; EC50 [10]: 0.003 µM
NS(=O)(=O)c1ccc(NC(=O)c2cc(NC3CCCCC3)ncn2)cc1								clearance [11]: 5 mL/min/kg
Cc1cc(O)ccc1NC(=O)c1cc(NC2CCCCC2)ncn1	18 µL/min/mg	2 µL/min/mg	21.8 ×10⁻⁶ cm/s	> 30 µM	> 32 µg/mL		0.258 µM	clearance [11]: 80.8 mL/min/kg; logP [5]: 4.1
CNS(=O)(=O)c1ccc(NC(=O)c2cc(N(CC3CC3)C3CCCCC3)ncn2)c(C)c1						0.006 µM		
CCCN(CC1CC1)c1cc(C(=O)Nc2ccc3[nH]ncc3c2)ncn1	57 µL/min/mg	17 µL/min/mg	8.5 ×10⁻⁶ cm/s		11 µg/mL (≈ 31.4 µM)		0.142 µM	Activity (Mus musculus [12]): inactive; EC50 [10]: 0.012 µM; Activity (Mus musculus [13]): inactive; Activity (Mus musculus [14]): 72%; logP [5]: 4.6
O=C(Nc1ccc2[nH]ccc2c1)c1cc(NC2CCCCC2)ncn1						12.1 µM		
Cc1cc(O)ccc1NC(=O)c1cc(NC2CC2)ncn1						> 20 µM		
O=C(Nc1ccc(O)cc1)c1cc(NC2CCCCC2)ncn1				> 30 µM				
Cc1cc2[nH]ncc2cc1NC(=O)c1cc(N(CC2CC2)C2CCCCC2)ncn1	26 µL/min/mg	< 10 µL/min/mg	0.1 ×10⁻⁶ cm/s		5 µg/mL (≈ 12.4 µM)			logP [5]: 6.1
CC(=O)Nc1ccc(NC(=O)c2cc(NC3CCCCC3)ncn2)cc1						> 20 µM		
O=C(Nc1ccc(F)cc1F)c1cc(NC2CCCCC2)ncn1						> 20 µM		
Cc1cc(O)ccc1NC(=O)c1cc(NC(C)(C)C)ncn1						> 20 µM		
CCCN(CCC)c1cc(C(=O)Nc2ccc(O)cc2)ncn1	7 µL/min/mg	4 µL/min/mg	21.4 ×10⁻⁶ cm/s		16 µg/mL (≈ 50.9 µM)	0.375 µM		
O=C(Nc1ccc(CO)cc1)c1cc(NC2CCCCC2)ncn1						> 20 µM		
CN(c1ccccc1)c1cc(C(=O)Nc2ccc(O)cc2)ncn1						> 20 µM		
Cc1cc(S(N)(=O)=O)ccc1NC(=O)c1cc(N(CC2CC2)C2CCCCC2)ncn1	14 µL/min/mg	130 µL/min/mg		> 30 µM	1 µg/mL (≈ 2.25 µM)	0.0016 µM	0.096 µM	logP [5]: 5.7
CN(c1cc(C(=O)Nc2ccc3[nH]nnc3c2)ncn1)C1CCCCC1						7.3 µM		
O=C(O)CCNCc1ccc(NC(=O)c2cc(N(CC3CC3)C3CCCCC3)ncn2)cc1	< 10 µL/min/mg	< 10 µL/min/mg	0.8 ×10⁻⁶ cm/s	1.09 µM	> 45 µg/mL		0.0063 µM	
Cc1cc(O)ccc1NC(=O)c1cc(N(CC2CC2)C2CCCCC2)ncn1	52 µL/min/mg	22 µL/min/mg		> 30 µM	8 µg/mL (≈ 21 µM)		0.191 µM	logP [5]: 7.4
